The text below walks through data of article PMC9865040, “Design of A3B-Porphyrin Conjugates with Terpyridine as Potential Theranostic Agents: Synthesis, Complexation with Fe(III), Gd(III), and Photodynamic Activity” (Pharmaceutics, 2023).

On the set-up of data set [1]: method as in PMID 17020252, PMID 24063545, doi:10.1002/(SICI)1099-1409(199803/04)2:2<145::AID-JPP60>3.0.CO. Particulars: in DMF, standard; cited from earlier work.
For data set [2] the following is noted: standard; cited from earlier work.
In data set [3] the test system is NKE cells (human kidney epithelium). The experiment in a line: Comet assay (DNA damage test). The data set is classed as cell-based. Particulars: 1 μg/mL, 24 h, positive control. The protocol:
Comet assay. NKE cells (human kidney epithelium) were seeded into 24-well plates at 8 × 10^4 per well and incubated in DMEM medium (PanEco, Russia) with penicillin-streptomycin (50 units/mL) (PanEco, Russia) and 10% fetal bovine serum (PanEco, Russia) at 37 °C in 5% CO2. After 24 h, the medium was changed to a similar one but without serum to avoid interaction of the studied substance with it. […] Cells serving as positive controls were treated with ifosfamide (Baxter Oncology, Germany) at a final concentration of 1 μg/mL. Cell culture with the substances was left for 24 h at 37 °C in 5% CO2. Once this time was reached, the cells were removed from the substrate and washed twice with phosphate-salt buffer (PBS). Direct Comet assay was performed using OxiSelect™ Comet Assay Kit (Cell Biolabs, USA) according to the manufacturer’s protocol. Samples were stained with fluorescent dye Sybr Gold, Invitrogene, USA, and examined with a Zeiss microscope using a filter for FITC-fluorescence. All necessary measurements were performed using the computer program CometScore2.0. Statistics were calculated using Student’s t-test using the Microsoft Excel software package.
During the study, the NKE cells were seeded in 24-well plates. […] After this time, the assay itself was performed using OxiSelect™ Comet Assay Kit (Cell Biolabs, San Diego, CA, USA). […]

Data set [4] can be described thus: Aggregation behaviour, UV-vis absorption and fluorescence spectra in DMF and aqueous solubiliser solutions. The data set is classed as physicochemical. The protocol: Aggregation behavior, photophysical characterization and solubilisation studies. Photophysical properties of zinc complexes of amphiphilic meso-arylporphyrins and their conjugates with terpyridine were studied in DMF and aqueous solutions of different solubilisers. Stock solutions of 1 mM of the studied compounds in DMF were added upon stirring to a micellar aqueous solution of a solubiliser (3 mL). The final concentration of the porphyrins was 3.5 µM. UV-vis absorption spectra were recorded using HACH DR-4000V spectrophotometer (Hach-Lange, Loveland, CO, USA) within the wavelength range of 320–800 nm with a step of 1 nm in quartz cells (10 mm) at room temperature. Steady-state fluorescence spectra were recorded using Perkin Elmer LS-50 (USA) luminescent spectrometer under similar conditions with the Soret band maximum excitation. Fluorescence quantum yields (ΦF) for Zn(II) complexes in DMF were measured according to the procedure using ZnTPP as a standard (ΦF = 0.033).

For data set [5], the system named is NKE (human normal kidney epithelial) cell line. The experiment in a line: Cell viability study (MTT-test) with and without irradiation. The data set is classed as cell-based. The protocol: (§1) Biological activity. Cell viability study (MTT-test) on Hep2 (human laryngeal cancer) and NKE (normal kidney epithelial) cell lines. For this study, cells were plated into 96-well plates (BD Micro-FinePlus, Franklin Lakes, USA) (6 × 10^3 cells in 180 μL of culture medium) and incubated for 24 h at 37 °C in 5% CO2. The medium was standard DMEM (PanEco, Moscow, Russia) with penicillin-streptomycin (50 units/mL) (PanEco, Moscow, Russia) supplemented with 10% fetal bovine serum (PanEco, Russia). After this time, culture medium was replaced with a similar volume of Hanks’ solution (PanEco, Russia) with glucose added at a final concentration of 4.5 mg/mL. On the day of the experiment, serial dilutions of the compound in deionised water were made and 20 μL was added to the cell culture. The cell culture thus obtained was irradiated for 90 min using a Medical Therapy Philips TL 20W/52 lamp (wavelength 400–500 nm), power 2.3 mW. In parallel, the cell culture was incubated with the compound in the dark. After 90 min, in both cases, Hanks’ solution with the compound was replaced with DMEM medium without serum. The cell culture was then left for 24 h at 37 °C in 5% CO2 in the dark, after which 10 μL of MTT reagent solution (5 mg/mL, PanEco, Russia) was added and incubated for another 3.5 h. The formed formazan in cells was dissolved in 100 μL DMSO. The optical density of the solution was measured on a MultiScan MCC 340 spectrophotometer (Labsystems, Kennett Square, PA, USA) at 540 nm. Each series of experiments was repeated 3 times. […] Statistical processing of the obtained data was performed using Excel program package (Microsoft).
(§2) Cell viability study (MTT-test). The cytotoxicity of compounds 12 and 14 was studied on a Hep2 cell line (human laryngeal cancer) and NKE (human normal kidney epithelial), with and without irradiation. Two approaches were used when treating the cells. In the first case, compounds 12 and 14 were introduced into the cell culture only for the irradiation time (90 min). After that, the cell medium containing one of the compounds was removed. The cells were incubated in a fresh DMEM medium without compounds for a further 24 h, after which time the results were evaluated. The IC50 values were close for both cell lines (Table 4, Figure 5 and Figure S58). […] The results for the NKE cell line are presented in Table 4 and Figure S58 (Supporting Information).
(§3) In the second series of experiments, cell viability was evaluated 24 h after irradiation without removing the compound from the culture medium.
On the technique in general: Formazan colour is commonly taken as a measure of viable cells.

The test system of data set [6] is Hep2 cell line (human laryngeal cancer). The description is as above. The data set is classed as cell-based. As to the method: as §1, §2, §3
The nature of data set [7]: Singlet oxygen quantum yield, DPBF oxidation in DMF, ZnTPP as standard. The data set is classed as physicochemical. Particulars: air-saturated, λ ≥ 500 nm. From the text: Photochemical experiments for singlet oxygen quantum yield determination. Porphyrin-containing samples were irradiated in quartz cells at room temperature in air-saturated DMF solutions. Light source consisted of halogen lamp (150 W), thermal and UV filters, a three-lens spherical condenser with a reflector, and a cut-off filter (λ ≥ 500 nm). The light flux power was 10 mW/cm^2. The efficiency of photosensitised ^1O2 generation in porphyrin solutions was estimated from the dynamics of the absorbance decrease at 415 nm, corresponding to the absorption maximum of the selective ^1O2 acceptor-1,3-diphenylisobenzofuran (DPBF). DPBF was added to the solution of the tested compound in the dark immediately before the start of the photochemical experiment (CDPBF = 0.1 mM). […] The singlet oxygen quantum yield (ΦΔ) were calculated according to the known procedure with ZnTPP being a standard (ΦΔ = 0.74 in DMF).

A short description of data set [8]: Aggregation behaviour, UV-vis absorption and fluorescence spectra in DMF and aqueous solubiliser solutions. The data set is classed as physicochemical. Particulars: DMSO.

Regarding `C1=Cc2nc1c(-c1ccccc1)c1ccc([n-]1)c(-c1ccccc1)c1nc(c(-c3ccccc3)c3ccc([n-]3)c2-c2ccccc2)C=C1.[Zn+2]` [ZnTPP], the “singlet oxygen quantum yield ΦΔ” value in data set [1] was 0.74. For the same compound, the “fluorescence quantum yield ΦF” value in data set [2] is reported as 0.033.

Consider `O=P1(NCCCl)OCCCN1CCCl` (centres unmarked) [ifosfamide], for which the “proportion of 'comet' cells” value in data set [3] is reported as 36.1 ± 2.14%.

As usually defined, the IC50 is the point on the concentration scale where inhibition reaches its midpoint. Read a high IC50 as weaker potency. Turning to `CCCCCCOc1ccc(-c2c3nc(c(-c4ccc(OCCCCCC)cc4)c4ccc([n-]4)c(-c4ccc(OCc5ccc(-c6cc(-c7ccccn7)nc(-c7ccccn7)c6)cc5)cc4)c4nc(c(-c5ccc(OCCCCCC)cc5)c5ccc2[n-]5)C=C4)C=C3)cc1.[Zn+2]` [compound 12], the solubilisation entry in data set [4] (0.5 mM Tween-80, 1% Cremophor EL and 1% Pluronic F-127) is given as “partial solubilisation”. Further, the lgε in data set [4] (Brij-58 (0.5 mM)) stood at 5.15; in data set [4] (Cremophor (1% Cremophor EL)), 5.35; in data set [4] (DMSO), 5.70; in data set [4] (Pluronic (1% Pluronic F-127)) it was 5.36; in data set [4] (TX-100 (1 mM)), 5.34; in data set [4] (Tween-80 (0.5 mM)), 5.40. Moreover, the “ΔλB (half-width of the Soret band)” value in data set [4] (Brij-58 (0.5 mM)) is given as 28 nm; in data set [4] (Cremophor (1% Cremophor EL)) it was 27 nm; in data set [4] (H2O), 36 nm; in data set [4] (Pluronic (1% Pluronic F-127)), 22 nm; in data set [4] (TX-100 (1 mM)) it was 25 nm; in data set [4] (Tween-80 (0.5 mM)), 19 nm. The “ΔλB (half-width of the Soret band)” value in data set [8] turned out to be 10 nm. The “λem, second band” value was found to be 660 nm in data set [4] (Brij-58 (0.5 mM)), 655 nm in data set [4] (Cremophor (1% Cremophor EL)), 660 nm in data set [4] (H2O) and 658 nm in data set [4] (Pluronic (1% Pluronic F-127)). Also, the λmax in data set [4] (Cremophor (1% Cremophor EL)) was 430. Also, the “molar absorption coefficient, times lower than for ZnTPP” value in data set [4] (DMF) is recorded as 1.5 times. In data set [4] (DMF), the “λQ (first Q band)” value is reported as 560 nm. Further, the half-maximal inhibitory concentration (IC50) in data set [5] (dark conditions, 24 h) was determined as 2.44 ± 0.281 µM; in data set [5] (light irradiation 8.073 J/cm^2, 24 h) it was 2.57 ± 0.32 µM; in data set [5] (light irradiation 8.073 J/cm^2, […]) it was 1.7 ± 0.297 µM; in data set [6] (dark conditions, 24 h), 2.55 ± 0.28 µM; in data set [6] (light irradiation 8.073 J/cm^2, 24 h, compound not removed), 2.47 ± 0.233 µM; in data set [6] (light irradiation 90 min, 8.073 J/cm^2, compound present […] then removed, read after 24 h), 1.87 ± 0.333 µM. For the same compound, the “toxic effect without irradiation” value in data set [6] (dark, […] incubation, studied concentration range) is recorded as “no toxic effect”. In addition, the “singlet oxygen quantum yield” value in data set [7] is “about 65%”.
